Measurements published in patent US20080008707A1, “Denatured collagen peptides and uses thereof” (Cell-Matrix, Inc., priority 2006, published 2008).

Experiments:
[1] = system: D93 binding to human denatured-collagen IV; experiment: Competition ELISA: synthetic peptides blocking D93 binding to heat denatured collagen IV; details: average of two studies, vs 1% BSA/PBS alone
Method: (§1) The ELISA was conducted as follows: wells of a 96-well microtiter plate (Immulon, 4 HBX flat-bottomed, Thermo Electron Corporation, Waltham, Mass.) were coated with 100 μL/well of dn-collagen IV at 10 μg/mL in Phosphate Buffered Saline (PBS) overnight at 4° C. The plate was washed 3 times (3×) with PBS containing 0.05% (v/v) Tween-20 (PBST) using an automated plate washer.
(§2) The plate was blocked by adding 300 μL/well of 1% BSA (w/v) in PBS for 1 hour at 25° C. followed by washing 3× in PBST as above.
(§3) Solutions of D93 or HUI77 were prepared with various concentrations of peptide or antibody inhibitor and incubate for 15 minutes. D93 or HUI77 was prepared at 200 ng/mL in 1% BSA/PBS.
(§4) For antibody blocking studies using synthetic peptides: peptide inhibitor stock solutions were prepared at 2 mM, 0.2 mM, 0.02 mM, and 0.002 mM in 1% BSA/PBS. 500 μL of a 2 mM peptide solution in 1% BSA/PBS was prepared and diluted 1:10 in 500 μL a total of three times to make peptide inhibitor concentrations.
(§5) 200 μL of D93 or HUI77 at 200 ng/mL solution was combined with 200 μL of peptide or antibody inhibitor solution and incubated for 15 minutes at room temperature.
(§6) D93 or HUI77 with various concentrations of inhibitors (2 mM, 0.2 mM, 0.02 mM, and 0.002 mM) were added to microplate wells and incubated for 1 hour at 25° C. The plate was washed 3× in PBST as above.
(§7) To each microtiter plate well, 100 μL of diluted anti-human IgG or anti-mouse IgM conjugated to horseradish peroxidase (HRP) in PBST was added and incubated for one hour at 25° C.: (a) for D93: Goat anti-human IgG-HRP (Jackson ImmunoResearch, Catalog No. 109-035-088) was used at 1:20,000 and (b) for HUI77: Goat anti-mouse IgM-HRP was used at 1:4,000. Plates were washed 3× in PBST as above.
(§8) Tetramethylbenzidine (TMB) substrate (100 μL; Pierce Chemicals)) was added to wells and the plates were allowed to develop at room temperature for 15 minutes in the dark. Substrate development was stopped by adding 50 μL/well of 2N H2SO4. The microtiter […] plates were read at 450 nm within five minutes of adding the H2SO4. Reactivity was measured with a microplate reader (Molecular Devices, Sunnyvale, Calif.) at a wavelength of 450 nm and analyzed using SOFTMax® PRO4.0 (Molecular Devices). All samples were tested in triplicate.
(§9) Individual peptides with amino acid substitutions and deletions were also synthesized based on the primary and secondary peptide arrays. […] The inhibitory activity of the individual peptides was tested by ELISA as previously described to measure binding of D93 or HUI77 to denatured collagen where peptides and antibodies were prepared at a 2× concentration and pre-incubated for 15 minutes prior to adding to microtiter plates coated with dn-collagen.
(§10) 96-well plates were coated with 100 μL/well of denatured (dn) collagen IV at 10 μg/mL in phosphate buffered saline (PBS) overnight at 4° C. followed by washing the plates in an automated plate washer 3 times in PBS containing 0.05% (v/v) Tween-20 (PBST). Non-specific binding was prevented by blocking the wells by adding 300 μL/well of 1% bovine serum albumin (BSA) (w/v) in PBS for 1 hour (hr) at 25° C. The plates were washed as above.
(§11) Solutions of D93 and HUI77 antibodies were prepared with various concentrations of inhibitor and incubated for 15 minutes. Briefly, 20 mLs of D93 or HUI77 were prepared at 200 ng/mL in 1% BSA/PBS. Solutions of peptide inhibitors (2 mM, 0.2 mM, […]) were prepared in 1% BSA/PBS. Equal volumes of antibodies and peptide inhibitors were combined: 200 μL of D93 or HUI77 (200 ng/mL solution) with 200 μL of each peptide solution.
(§12) 100 μL/well of D93 or HUI77 at 100 ng/mL with various concentrations of inhibitors were added to the wells in triplicate and incubated for 1 hour at 25° C. The plates were washed as described above.
(§13) 100 μL/well of secondary horseradish peroxidase (HRP)-conjugated antibody in PBST was added to each well and incubated for 1 hour (hr) at 25° C. […]

[2] = system: HUI77 binding to denatured collagen IV; experiment: Competition ELISA: synthetic peptides blocking HUI77 binding to heat denatured collagen IV; parameters: species or system human; details: average of two studies
Method: as §1, §2, §3, §4, §5, §6, §7, §8, §9, §10, §11, §12, §13

[3] = peptide inhibitor concentration 10 μM, listed as 15 (32), 10 µM
[4] = peptide inhibitor concentration 100 μM, listed as 15 (32), 100 µM
[5] = peptide inhibitor concentration 1000 μM, listed as 15 (32), 1000 µM
[6] = peptide inhibitor concentration 100 μM, listed as 18 (22), 100 µM
[7] = peptide inhibitor concentration 1000 μM, listed as 18 (22), 1000 µM
[8] = peptide inhibitor concentration 10 μM
[9] = peptide inhibitor concentration 100 μM
[10] = peptide inhibitor concentration 10 μM, listed as 11 (19), 10 µM
[11] = peptide inhibitor concentration 100 μM, listed as 11 (19), 100 µM
[12] = peptide inhibitor concentration 1000 μM, listed as 11 (19), 1000 µM

In the case of “GPPGPPG (GPXGPXG; MOD_RES (3) Hydroxyproline; MOD_RES (6) Hydroxyproline) [SEQ ID NO: 32]”, the “% INHIBITION OF BINDING OF D93 TO HUMAN DENATURED-COLLAGEN IV” value ([1]; peptide inhibitor concentration 1 μM, listed as 15 (32), 1 µM) is reported as 8%, the “% INHIBITION OF BINDING OF D93 TO HUMAN DENATURED-COLLAGEN IV” value [1, 3] is reported as 17% and the “% INHIBITION OF BINDING OF D93 TO HUMAN DENATURED-COLLAGEN IV” value [1, 4] is reported as 64%. For the same substance, the “% INHIBITION OF BINDING OF D93 TO HUMAN DENATURED-COLLAGEN IV” value [1, 5] was 92.5%, the “% INHIBITION OF BINDING OF HUI77 TO DENATURED COLLAGEN IV” value [2, 3] was 6% and the “% INHIBITION OF BINDING OF HUI77 TO DENATURED COLLAGEN IV” value [2, 4] was 7.5%. For the same substance, the “% INHIBITION OF BINDING OF HUI77 TO DENATURED COLLAGEN IV” value [2, 5] was 77%.

With LPGPPGPPG [SEQ ID NO: 22] the “% INHIBITION OF BINDING OF D93 TO HUMAN DENATURED-COLLAGEN IV” value ([1]; peptide inhibitor concentration 1 μM, listed as 18 (22), 1 µM) was 6%, the “% INHIBITION OF BINDING OF D93 TO HUMAN DENATURED-COLLAGEN IV” value ([1]; peptide inhibitor concentration 10 μM, listed as 18 (22), 10 µM) was 5% and the “% INHIBITION OF BINDING OF D93 TO HUMAN DENATURED-COLLAGEN IV” value [1, 6] was 3%. The “% INHIBITION OF BINDING OF D93 TO HUMAN DENATURED-COLLAGEN IV” value [1, 7] was 17.5%, the “% INHIBITION OF BINDING OF HUI77 TO DENATURED COLLAGEN IV” value [2, 6] was 9% and the “% INHIBITION OF BINDING OF HUI77 TO DENATURED COLLAGEN IV” value [2, 7] was 6%.

In the case of “Hyp-G-A-K-G-L-P-G-P-Hyp-G-P-Hyp-G-P-Y [SEQ ID NO: 2]”, the “% INHIBITION OF BINDING OF D93 TO HUMAN DENATURED-COLLAGEN IV” value ([1]; peptide inhibitor concentration 1 μM) is reported as 30%, the “% INHIBITION OF BINDING OF D93 TO HUMAN DENATURED-COLLAGEN IV” value [1, 8] is reported as 81% and the “% INHIBITION OF BINDING OF D93 TO HUMAN DENATURED-COLLAGEN IV” value [1, 9] is reported as 93.5%. For the same substance, the “% INHIBITION OF BINDING OF D93 TO HUMAN DENATURED-COLLAGEN IV” value ([1]; peptide inhibitor concentration 1000 μM) was 93.5%, the “% INHIBITION OF BINDING OF HUI77 TO DENATURED COLLAGEN IV” value [2, 8] was 7.5% and the “% INHIBITION OF BINDING OF HUI77 TO DENATURED COLLAGEN IV” value [2, 9] was 18%. For the same substance, the “% INHIBITION OF BINDING OF HUI77 TO DENATURED COLLAGEN IV” value ([2]; peptide inhibitor concentration 1000 μM, 1000 µM) was 86% and the “% INHIBITION OF BINDING OF HUI77 TO DENATURED COLLAGEN IV” value ([2]; peptide inhibitor concentration 1000 μM, listed as 12 (2), 1000 µM) was 86.5%.

LPGPPGPPGPY [SEQ ID NO: 19] was tested, and the “% INHIBITION OF BINDING OF D93 TO HUMAN DENATURED-COLLAGEN IV” value ([1]; peptide inhibitor concentration 1 μM, listed as 11 (19), 1 µM) was 32%, the “% INHIBITION OF BINDING OF D93 TO HUMAN DENATURED-COLLAGEN IV” value [1, 10] was 83% and the “% INHIBITION OF BINDING OF D93 TO HUMAN DENATURED-COLLAGEN IV” value [1, 11] was 93.5%. The “% INHIBITION OF BINDING OF D93 TO HUMAN DENATURED-COLLAGEN IV” value [1, 12] was 93.5%, the “% INHIBITION OF BINDING OF HUI77 TO DENATURED COLLAGEN IV” value [2, 10] was 6.5% and the “% INHIBITION OF BINDING OF HUI77 TO DENATURED COLLAGEN IV” value [2, 11] was 18.5%. For the same substance, the “% INHIBITION OF BINDING OF HUI77 TO DENATURED COLLAGEN IV” value [2, 12] was 87%.
